Reference: PMC4854315, “Discovery of a novel allosteric inhibitor-binding site in ERK5: comparison with the canonical kinase hinge ATP-binding site” (Acta Crystallographica. Section D, Structural Biology, 2016)

Experiments:
Assay in all cases: Z'-LYTE kinase panel
Type in all cases: biochemical
AURKC (Aurora C) = biological target: T1, AURKC (Aurora C) (Homo sapiens, UniProt Q9UQB9)
T1 construct: purchased ThermoFisher (SelectScreen, Z'-LYTE)
T1 sequence (Q9UQB9 1-309): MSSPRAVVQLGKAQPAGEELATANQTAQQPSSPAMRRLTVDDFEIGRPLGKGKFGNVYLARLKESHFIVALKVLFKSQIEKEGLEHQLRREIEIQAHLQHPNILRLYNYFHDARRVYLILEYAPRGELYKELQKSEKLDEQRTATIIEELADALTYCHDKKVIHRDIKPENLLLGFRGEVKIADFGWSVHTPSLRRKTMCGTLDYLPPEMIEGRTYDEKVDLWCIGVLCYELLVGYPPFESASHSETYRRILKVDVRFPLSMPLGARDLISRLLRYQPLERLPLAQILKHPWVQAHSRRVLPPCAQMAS
Outline: (§1)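 Readout is percentage inhibition, obtained from the standard Z′-LYTE protocol with test compound present at 10 µM; screened within a panel of 225 kinases.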

DCAMKL2 (DCK2) = biological target: T2, DCAMKL2 (DCK2) (Homo sapiens, UniProt Q8N568)
T2 construct: purchased ThermoFisher (SelectScreen, Z'-LYTE)
T2 sequence (Q8N568 1-766): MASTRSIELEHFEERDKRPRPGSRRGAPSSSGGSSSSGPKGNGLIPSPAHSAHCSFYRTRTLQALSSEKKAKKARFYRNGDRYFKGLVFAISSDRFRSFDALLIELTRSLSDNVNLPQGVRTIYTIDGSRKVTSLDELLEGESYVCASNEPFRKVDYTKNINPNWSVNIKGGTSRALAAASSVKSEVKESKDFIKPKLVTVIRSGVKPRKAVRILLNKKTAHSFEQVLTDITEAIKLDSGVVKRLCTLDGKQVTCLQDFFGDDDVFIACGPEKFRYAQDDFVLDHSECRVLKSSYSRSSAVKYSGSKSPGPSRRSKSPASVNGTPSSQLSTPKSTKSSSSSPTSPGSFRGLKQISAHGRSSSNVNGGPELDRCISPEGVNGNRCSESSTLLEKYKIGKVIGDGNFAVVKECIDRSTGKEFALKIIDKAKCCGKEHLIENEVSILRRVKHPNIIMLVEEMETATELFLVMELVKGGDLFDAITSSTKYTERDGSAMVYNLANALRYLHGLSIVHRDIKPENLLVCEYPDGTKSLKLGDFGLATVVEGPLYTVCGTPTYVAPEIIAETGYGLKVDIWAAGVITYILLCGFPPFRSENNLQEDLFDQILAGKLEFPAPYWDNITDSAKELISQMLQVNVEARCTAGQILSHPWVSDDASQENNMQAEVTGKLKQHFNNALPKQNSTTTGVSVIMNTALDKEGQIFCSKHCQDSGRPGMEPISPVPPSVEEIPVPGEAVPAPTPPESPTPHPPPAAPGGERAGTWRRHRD
Outline: as §1

[1] = biological target: T3, MAPK14 (p38 alpha) Direct (Homo sapiens, UniProt Q16539)
T3 construct: purchased ThermoFisher (SelectScreen, Z'-LYTE)
T3 sequence (Q16539 whole entry): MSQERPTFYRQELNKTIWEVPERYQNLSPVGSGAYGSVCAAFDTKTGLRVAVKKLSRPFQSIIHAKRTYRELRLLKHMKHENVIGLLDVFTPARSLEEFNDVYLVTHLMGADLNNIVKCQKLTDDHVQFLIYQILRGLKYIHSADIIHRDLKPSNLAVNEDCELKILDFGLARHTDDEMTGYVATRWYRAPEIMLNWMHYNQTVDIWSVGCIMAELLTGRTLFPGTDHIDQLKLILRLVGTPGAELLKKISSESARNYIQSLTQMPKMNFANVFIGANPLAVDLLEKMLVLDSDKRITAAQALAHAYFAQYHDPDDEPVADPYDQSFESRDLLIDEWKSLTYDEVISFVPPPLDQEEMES
Outline: as §1

PRKD1 (PKC mu) = biological target: T4, PRKD1 (PKC mu) (Homo sapiens, UniProt Q15139)
T4 construct: purchased ThermoFisher (SelectScreen, Z'-LYTE)
T4 sequence (Q15139 1-912): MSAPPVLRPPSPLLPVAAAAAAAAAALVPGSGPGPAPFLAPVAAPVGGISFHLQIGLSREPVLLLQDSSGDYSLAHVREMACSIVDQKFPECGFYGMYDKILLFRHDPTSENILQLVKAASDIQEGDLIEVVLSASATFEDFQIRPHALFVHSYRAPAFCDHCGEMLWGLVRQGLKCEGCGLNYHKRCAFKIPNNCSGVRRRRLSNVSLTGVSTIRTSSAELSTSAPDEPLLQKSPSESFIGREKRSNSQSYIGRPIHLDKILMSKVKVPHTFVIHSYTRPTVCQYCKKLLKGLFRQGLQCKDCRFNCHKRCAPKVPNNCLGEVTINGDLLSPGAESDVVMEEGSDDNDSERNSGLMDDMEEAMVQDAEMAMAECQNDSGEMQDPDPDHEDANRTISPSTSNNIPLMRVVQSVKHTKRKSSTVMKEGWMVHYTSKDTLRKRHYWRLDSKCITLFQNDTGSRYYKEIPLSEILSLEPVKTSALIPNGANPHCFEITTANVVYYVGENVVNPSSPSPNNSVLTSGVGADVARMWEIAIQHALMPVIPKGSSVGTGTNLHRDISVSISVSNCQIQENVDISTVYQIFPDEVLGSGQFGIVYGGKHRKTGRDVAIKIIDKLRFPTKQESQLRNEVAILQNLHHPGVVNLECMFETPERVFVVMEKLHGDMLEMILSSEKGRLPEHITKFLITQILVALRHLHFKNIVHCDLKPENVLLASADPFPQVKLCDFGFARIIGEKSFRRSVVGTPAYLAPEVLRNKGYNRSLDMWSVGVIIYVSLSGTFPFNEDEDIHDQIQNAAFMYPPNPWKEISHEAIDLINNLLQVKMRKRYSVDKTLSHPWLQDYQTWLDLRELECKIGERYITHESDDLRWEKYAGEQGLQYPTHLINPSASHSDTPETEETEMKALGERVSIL
Outline: as §1

STK3 (MST2) = biological target: T5, STK3 (MST2) (Homo sapiens, UniProt Q13188)
T5 construct: purchased ThermoFisher (SelectScreen, Z'-LYTE)
T5 sequence (Q13188 1-491): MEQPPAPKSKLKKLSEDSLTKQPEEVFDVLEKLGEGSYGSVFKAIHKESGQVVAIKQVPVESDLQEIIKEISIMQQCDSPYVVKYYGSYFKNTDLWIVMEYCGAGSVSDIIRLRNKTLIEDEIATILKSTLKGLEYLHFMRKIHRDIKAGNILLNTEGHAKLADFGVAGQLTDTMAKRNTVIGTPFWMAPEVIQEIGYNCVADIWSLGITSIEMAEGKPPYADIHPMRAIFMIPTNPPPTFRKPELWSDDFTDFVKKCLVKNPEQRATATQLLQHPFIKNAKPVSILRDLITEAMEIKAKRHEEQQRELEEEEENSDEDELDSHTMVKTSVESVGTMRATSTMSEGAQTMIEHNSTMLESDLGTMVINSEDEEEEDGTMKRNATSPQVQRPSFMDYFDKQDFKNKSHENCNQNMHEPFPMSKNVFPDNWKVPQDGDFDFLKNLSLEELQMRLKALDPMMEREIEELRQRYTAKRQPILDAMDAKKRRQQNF
Outline: as §1

`Cc1cc(Nc2nc(N)nn2C(=O)NC(C)C)ccc1Cl` [Compound 5] gave an inhibition at 10 µM (AURKC (Aurora C)) of 54%, an inhibition at 10 µM (DCAMKL2 (DCK2)) of -1.9% and an inhibition at 10 µM [1] of 9%. For the same compound, the inhibition at 10 µM (PRKD1 (PKC mu)) was 15% and the inhibition at 10 µM (STK3 (MST2)) was 53%.
For `Cc1ncc(-c2nc(Nc3ccc(C(=O)NCCN4CCCCC4)cc3)ncc2F)n1C(C)C` [Compound 3], the inhibition at 10 µM (AURKC (Aurora C)) was 89%, the inhibition at 10 µM (DCAMKL2 (DCK2)) was 62% and the inhibition at 10 µM [1] was 9%. The inhibition at 10 µM (PRKD1 (PKC mu)) was 93% and the inhibition at 10 µM (STK3 (MST2)) was 79%.
In the case of “XMD8-92 [Compound 2, reference compound]”, the “AURKC (Aurora C) % Inhibition” value (AURKC (Aurora C); 10 µM compound, ATP Km app) is reported as 34%, the “DCAMKL2 (DCK2) % Inhibition” value (DCAMKL2 (DCK2); 10 µM compound, ATP Km app) is reported as 61% and the “MAPK14 (p38 alpha) Direct % Inhibition” value ([1]; 10 µM compound, ATP Km app) is reported as 8%. The “PRKD1 (PKC mu) % Inhibition” value (PRKD1 (PKC mu); 10 µM compound, ATP Km app) was 17% and the “STK3 (MST2) % Inhibition” value (STK3 (MST2); 10 µM compound, ATP Km app) was -12%.
